Laboratory results from paper PMC6204718, “GCDB: a glaucomatous chemogenomics database for in silico drug discovery” (Database: The Journal of Biological Databases and Curation, 2018).
Like-named read-outs stand apart in the source and are kept apart here.

Tests used:
human A3AR = target: T1, human A3AR (Homo sapiens, UniProt P0DMS8); test: A3AR cell-based functional assay (A3AR-mediated cAMP production, CHO-ADORA3 cells); settings: for IC50: target A3AR, cAMP level of ADORA3-CHO cells elicited by NECA
T1 construct: host or cells: CHO-K1 (CHO-ADORA3)
T1 sequence (P0DMS8 1-318): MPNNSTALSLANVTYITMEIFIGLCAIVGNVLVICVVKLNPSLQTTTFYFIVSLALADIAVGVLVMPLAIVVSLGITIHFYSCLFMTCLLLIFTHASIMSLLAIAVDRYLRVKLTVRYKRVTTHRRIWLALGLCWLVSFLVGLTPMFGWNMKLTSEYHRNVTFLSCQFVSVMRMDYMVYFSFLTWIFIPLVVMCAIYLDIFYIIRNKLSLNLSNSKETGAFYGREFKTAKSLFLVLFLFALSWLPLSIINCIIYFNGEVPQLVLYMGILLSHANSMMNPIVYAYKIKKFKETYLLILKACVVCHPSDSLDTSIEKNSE
Description: (§1) Pharmaron (Beijing) was commissioned to perform in vitro inhibition screening of hGR and A3AR.
The four test compounds were evaluated as A3AR antagonists by A3AR-mediated cAMP production in cell-based functional assays. CHO-ADORA3 cells in which the A3AR was transfected in engineered CHO-K1 cells (PerkinElmer) to express the human A3AR were employed. The cells were collected by centrifugation and resuspended with Hank’s Buffered Saline Solution, 5 mM 4-(2-hydroxyethyl)-1-piperazineethanesulfonic acid (HEPES), 0.1% bovine serum albumin (BSA) stabilizer (pH 7.4) and 10 μM Rolipram. 2000 cells per well were added to 384 wells solid white plate. Test compounds were prepared with DMSO in 3-fold serial dilutions of 11 concentrations and dispensed to assay plates. Each compound was tested within the range of 1.69 × 10^-3–100 μM. The serial dilutions of adenosine-5′-N-ethyluronamide (NECA, 10 nl/well) was transferred to 384 wells and incubated at room temperature for 30 min. A LANCE cAMP 384 kit (Perkin Elmer, USA) was used to measure the intracellular cAMP levels. Forskolin (1 μM) was used to stimulate adenylyl cyclase activity and induce cAMP production. NECA and VUF-5574 were used as reference compounds.

[1] = target: T2, human glucocorticoid receptor (hGR) (Homo sapiens, UniProt P04150); test: hGR reporter gene assay (GR-GAL4 chimeric receptor, antagonist mode); assay type: cell-based
T2 construct: expressed in transfected cells; host or cells: HEK293T
T2 sequence (P04150 524-758 limits assumed): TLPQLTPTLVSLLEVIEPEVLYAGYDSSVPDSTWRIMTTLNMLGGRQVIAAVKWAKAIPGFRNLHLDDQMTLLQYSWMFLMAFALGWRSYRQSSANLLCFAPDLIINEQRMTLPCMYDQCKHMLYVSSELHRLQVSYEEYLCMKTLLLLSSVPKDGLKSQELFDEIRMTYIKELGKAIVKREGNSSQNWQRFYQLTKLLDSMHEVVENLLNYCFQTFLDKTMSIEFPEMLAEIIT
Excerpt: as §1
The coding sequence of hGR ligand-binding domain was inserted into the pBIND expression vector (Promega, E1581) to express GR-GAL4 binding domain chimeric receptors. The expression vector and reporter vector were co-transfected into HEK293T host cells. The principle of the assay is that once the agonist binds to the corresponding GR-GAL4 chimeric receptor, the reporter gene is activated after binding of the chimeric receptor to the GAL4 binding sites. When the antagonist and agonist are in the system, the antagonist will compete with the agonist for binding to the GR-GAL4 chimeric receptor, inhibiting the reporter gene. Cyproterone was used as a positive control. All six test compounds were prepared in dimethyl sulfoxide (DMSO) at 10 mM and further diluted. Each compound was added to wells at final concentrations of 100 μM, 50 μM, 16.67 μM, 5.56 μM, 1.85 μM, 0.62 μM, 0.21 μM, 0.07 μM, 0.02 μM, 0.008 μM and 0.003 μM.

[2] = read-out: IC50 (half-maximal inhibitory concentration)
[3] = target GR, GR-GAL4 reporter gene assay in HEK293T cells, read-out: IC50 (half-maximal inhibitory concentration)

Row | Compound | IC50 (human A3AR; [2]) | IC50 [1, 3] | also measured
1 | CC(=O)Nc1ccc(S(=O)(=O)Nc2cc(C(F)(F)F)cc(C(F)(F)F)c2)cc1 [A3-1] | > 10 µM | – | –
2 | NC(=O)c1nnc2cc(-c3ccccc3)nn2c1-c1ccccc1Cl [A3-2] | > 10 µM | – | –
3 | O/N=C/c1cn(-c2ccccc2)nc1-c1ccccc1 [A3-3] | 6.15 µM | – | LE value (human A3AR; ligand efficiency based on IC50, 20 heavy atoms): 1.51 kJ/mol
4 | CC1(O)CCC2C3CCC4=CC(=O)CCC4C3CCC21C (centres unmarked) [A3-4] | – | – | IC50 (human A3AR; IC50 (half-maximal inhibitory concentration)): > 10 µM
5 | CC(=O)OC1CCC2(C)C(=CCC3C2CCC2(C)C(OC(=O)c4ccccc4)CCC32)C1 (centres unmarked) [GR-1] | – | – | IC50 [1]: 28.4 µM
6 | C#CC1(O)CCC2C3CCc4cc(Oc5ccc([N+](=O)[O-])cc5)ccc4C3CCC21C (centres unmarked) [GR-2] | – | 2.92 µM | –
7 | CC(=O)C1(O)CCC2C3CCC4(C)CC(=O)CCC4(C)C3C(=O)CC21C (centres unmarked) [GR-3] | – | 27 µM | –
8 | Cc1nnc(SCC(=O)Nc2ccc(S(N)(=O)=O)cc2)c2nn(-c3ccccc3)c(C)c12 [GR-4] | – | 23.5 µM | –
9 | O=S(=O)(Nc1cccc(-c2nc3ccccc3s2)c1)c1ccc(F)c(Cl)c1 [GR-5] | – | 18 µM | –
10 | CC(=O)OCC(=O)C1(OC(C)=O)CCC2C3CCC4=CC(=O)C=CC4(C)C3C(=O)CC21C (centres unmarked) [GR-6] | – | 8.6 µM | –
